According to US20210369680A1, “METHODS OF TREATING DISEASES AND DISORDERS RESULTING FROM BETA CORONAVIRUS INFECTION” (T3D Therapeutics, Inc., priority 2020, published 2021):
Values joined by “and” are separate entries in the source; they are usually repeats but may differ in a detail not shown here. Identical values can stand only once.

How the values were obtained:
[1] = Clinical DSST in subjects with mild-to-moderate dementia (Phase 2a); assay type: in vivo, human
Text: Clinical DSST Data in Cognitively Impaired Subjects
DSST is a commonly used tests in clinical neuropsychology, and has been used to measure a range of cognitive functions including intact motor speed, attention, executive, and visuo-perceptual functions. Reference is made to Jaeger J. Digit Symbol Substitution Test: The Case for Sensitivity Over Specificity hi Neuropsychological Testing. J Clin Psychopharmacol. 2018; 38(5):513-519. doi:10.1097/JCP.0000000000000941, which is incorporated by reference with regard to the example. DSST scores were assessed in a randomized, parallel, 4-dose Phase 2a study in subjects with mild-to-moderate dementia (MMSE for mild 20-26, for moderate 14-19) before and after treatment with compound of Example 11. A total of 34 subjects were randomized to one of 4 doses of drug, 3 mg (n=8), 10 mg (n=9), 30 mg (n=9) or 90 mg (n=8) administered orally once-a-day for 14 days then followed-up at day 21 (7-days post-dosing discontinuation.
DSST scores are based on the number of correct substitutions in a fixed timeframe, and a higher score in the DSST denotes improvement. Data was collected at four time points for all subjects in each of the four dose groups: Prescreen (PS, one week before BL), baseline (BL), end-of-treatment (EOT) and follow-up (FU, one week after EOT). The DSST results averaged across all subjects at PS (14.1, SD=11.8) and BL (13.9, SD=12.5) were quite similar as would be expected. The larger standard deviations, and the wide range of scores (zero to 48) reflects the broad range of cognitive function in the 34 subjects in this trial. DSST averages per dose group at PS were: 3 mg, 13.88 (SD=10.83); 10 mg, 14.33 (SD=13.52); 30 mg, 18.78 (SD=14.52); and 90 mg, 8.88 (SD=6.56). The data is best described as averaged differences in individual results as it reduces variability. For all 34 subjects, the change in DSST score was −0.21 (SD=4.23) for (BL-PS), and 3.5 (SD=5.51) for (FU-EOT), with unpaired t-test p-value of 0.005. […]

[2] = Rat brain penetrance pharmacokinetics after oral dosing; assay type: in vivo, male Sprague-Dawley rats; details: for B/P Ratio / Brain Tissue Cone. / Plasma Conc.: individual rats; for Average (B/P Ratio): mean of 3 rats
Text: Determination of Brain to Plasma Ratios for Compound of Example 11
For compounds of the present disclosure to be effective in treating cognitive impairment, it must have an ability to cross the BBB and penetrate the brain. […] The plasma exposure as measured by AUClast was 9569±1190 hr*ng/mL.

[3] = Fasting plasma glucose in 2-week clinical study; assay type: in vivo, human; set-up: FPG on Day 1 / FPG on Day 14 / FPG on Day 21 / FPG Change from D 1 to D 14 / FPG Change from D 1 to D 21: unit not given here
Text: Fasting Plasma Glucose Levels for Compound 11 from a Clinical Study
FPG measured in millimoles/Liter (MMOL/L), averaged over all subjects, was lowered from day 1 to day 14. For each individual dose group day 14 FPG levels were lower than day 1 levels. […] For the two highest doses, the FPG remained lower on follow-up testing on day 21, one week after end of treatment.

CCc1oc(-c2ccc(OC)cc2)nc1CCOc1ccc2c(c1)CC[C@H]2CC(=O)[O-].[Na+] [Example 11, Sodium (S)-2-(5-(2-(5-ethyl-2-(4-methoxyphenyl)oxazol-4-yl)ethoxy)-2,3-dihydro-1H-inden-1-yl)acetate]
change in DSST score EOT-PS ([1]; 3 mg group): 0.57 | change in DSST score FU-PS ([1]; 10 mg group): 3.14 | change in DSST score (FU-EOT) ([1]; all 34 subjects): 3.5 | Brain/Plasma ratio ([2]; 1 hour, rat, oral 3 mg/kg): 0.361±0.142 | B/P Ratio ([2]; 1.0 hr): 0.36 and 0.51 and 0.22 | Brain Tissue Cone. ([2]; 1.0 hr): 161 ng/g and 101 ng/g and 226 ng/g | Plasma Conc. ([2]; 1.0 hr): 453 ng/mL and 199 ng/mL and 1020 ng/mL | Average (B/P Ratio) ([2]; 1.0 hr): 0.361 | Brain/Plasma ratio ([2]; 3 hours, rat, oral 3 mg/kg): 0.220±0.033 | B/P Ratio ([2]; 3.0 hr): 0.26 and 0.21 and 0.19 | Brain Tissue Cone. ([2]; 3.0 hr): 234 ng/g and 269 ng/g and 274 ng/g | Plasma Conc. ([2]; 3.0 hr): 1270 ng/mL and 1430 ng/mL | Average (B/P Ratio) ([2]; 3.0 hr): 0.220 | Brain/Plasma ratio ([2]; 5 hours, rat, oral 3 mg/kg): 0.171±0.011 | B/P Ratio ([2]; 5.0 hr): 0.17 and 0.18 and 0.16 | Brain Tissue Cone. ([2]; 5.0 hr): 208 ng/g and 247 ng/g and 333 ng/g | Plasma Conc. ([2]; 5.0 hr): 1260 ng/mL and 1340 ng/mL and 2040 ng/mL | Average (B/P Ratio) ([2]; 5.0 hr): 0.171 | Brain/Plasma ratio ([2]; 7 hours, rat, oral 3 mg/kg): 0.328±0.154 | B/P Ratio ([2]; 7.0 hr): 0.16 and 0.35 and 0.47 | Brain Tissue Cone. ([2]; 7.0 hr): 203 ng/g and 216 ng/g | Plasma Conc. ([2]; 7.0 hr): 1240 ng/mL and 368 ng/mL and 462 ng/mL | Average (B/P Ratio) ([2]; 7.0 hr): 0.328 | Brain/Plasma ratio ([2]; 12 hours, rat, oral 3 mg/kg): 0.350±0.077 | B/P Ratio ([2]; 12.0 hr): 0.30 and 0.44 and 0.31 | Brain Tissue Cone. ([2]; 12.0 hr): 104 ng/g and 114 ng/g and 117 ng/g | Plasma Conc. ([2]; 12.0 hr): 345 ng/mL and 259 ng/mL and 377 ng/mL | Average (B/P Ratio) ([2]; 12.0 hr): 0.350 | average plasma half-life ([2]; rat, oral 3 mg/kg): 3.33 h | plasma Cmax ([2]; rat, oral 3 mg/kg): 1547 ± 248 ng/mL | plasma exposure AUClast ([2]; rat, oral 3 mg/kg): 9569 ± 1190 ng·h/mL | FPG Change from D 1 to D 14 ([3]; 3 mg): −2.2 | FPG Change from D 1 to D 21 ([3]; 3 mg): 2.5 | FPG on Day 1 ([3]; 3 mg): 94.6 | FPG on Day 14 ([3]; 3 mg): 92.4 | FPG on Day 21 ([3]; 3 mg): 97.1 | FPG Change from D 1 to D 14 ([3]; 10 mg): −3.4 | FPG Change from D 1 to D 21 ([3]; 10 mg): 0.5 | FPG on Day 1 ([3]; 10 mg): 101.4 | FPG on Day 14 ([3]; 10 mg): 98 | FPG on Day 21 ([3]; 10 mg): 101.9 | FPG Change from D 1 to D 14 ([3]; 30 mg): −4.6 | FPG Change from D 1 to D 21 ([3]; 30 mg): −0.1 | FPG on Day 1 ([3]; 30 mg): 99.2 | FPG on Day 14 ([3]; 30 mg): 94.6 | FPG on Day 21 ([3]; 30 mg): 99.1 | FPG Change from D 1 to D 14 ([3]; 90 mg): −7.0 | FPG Change from D 1 to D 21 ([3]; 90 mg): −4.7 | FPG on Day 1 ([3]; 90 mg): 101.1 | FPG on Day 14 ([3]; 90 mg): 94.1 | FPG on Day 21 ([3]; 90 mg): 96.4 | Fasting Plasma Glucose (FPG) levels ([3]; 2-week clinical study, 34 subjects): lowered as a function of dose | FPG Change from D 1 to D 14 ([3]; All subjects): −4.3 | FPG Change from D 1 to D 21 ([3]; All subjects): −1 | FPG on Day 1 ([3]; All subjects): 99.1 | FPG on Day 14 ([3]; All subjects): 94.8 | FPG on Day 21 ([3]; All subjects): 98.1
